For eight compounds, IC50 results are on record in patent US12319679B2, “Morpholinyl, piperazinyl, oxazepanyl and diazepanyl O-glycoprotein-2-acetamido-2-deoxy-3-d-glucopyranosidase inhibitors” (BIOGEN MA INC., priority 2018, dated 2025).

The assay has as its target T1, Recombinant full length human OGA enzyme (Homo sapiens, UniProt O60502).
T1 construct: Recombinant full length human OGA enzyme was purchased from Origene; purchased Origene
T1 sequence (O60502 1-916): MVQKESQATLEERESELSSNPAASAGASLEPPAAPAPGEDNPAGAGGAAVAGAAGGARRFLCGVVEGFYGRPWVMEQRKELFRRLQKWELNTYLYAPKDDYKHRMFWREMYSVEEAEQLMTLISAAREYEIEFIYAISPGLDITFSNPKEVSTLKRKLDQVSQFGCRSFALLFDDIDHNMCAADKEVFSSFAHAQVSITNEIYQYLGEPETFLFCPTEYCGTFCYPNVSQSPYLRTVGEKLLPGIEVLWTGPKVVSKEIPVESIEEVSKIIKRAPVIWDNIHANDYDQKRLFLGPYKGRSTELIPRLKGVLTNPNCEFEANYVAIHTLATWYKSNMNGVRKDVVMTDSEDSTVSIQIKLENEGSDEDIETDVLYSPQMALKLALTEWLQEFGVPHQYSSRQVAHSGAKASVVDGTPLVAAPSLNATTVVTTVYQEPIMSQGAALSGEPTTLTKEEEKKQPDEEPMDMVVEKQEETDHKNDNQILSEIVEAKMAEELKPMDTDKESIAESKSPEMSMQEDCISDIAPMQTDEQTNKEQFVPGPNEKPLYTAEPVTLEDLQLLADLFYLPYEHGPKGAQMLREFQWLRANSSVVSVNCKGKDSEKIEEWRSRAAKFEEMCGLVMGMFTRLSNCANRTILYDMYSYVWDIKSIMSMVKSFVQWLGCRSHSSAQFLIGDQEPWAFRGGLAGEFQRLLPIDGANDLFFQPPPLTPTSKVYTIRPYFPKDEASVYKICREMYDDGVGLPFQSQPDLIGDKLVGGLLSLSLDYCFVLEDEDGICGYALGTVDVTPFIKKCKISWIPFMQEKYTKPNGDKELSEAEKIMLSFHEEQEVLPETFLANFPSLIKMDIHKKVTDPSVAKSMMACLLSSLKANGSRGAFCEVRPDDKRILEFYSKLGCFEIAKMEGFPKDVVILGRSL
In words: OGA Enzyme Inhibition Biochemical Assay. Particulars: 1 nM OGA, 100 μM 4-MUGlcNAc (Km), pH 6.4, 90 minutes at room temperature; 10-point dose-response starting from 20 μM. In short, it runs like this: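 Full-length human OGA (1 nM) with 100 μM 4-MUGlcNAc (Km) in McIlvaine buffer pH 6.4, 0.01% BSA, 90 min at room temperature, then quenched with glycine pH 10. Fluorescence at Ex 355/Em 460 nm; 10-point 4-fold series from 20 μM, four-parameter variable-slope fit.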

Structures are written as SMILES. Counter-ions that a name gives are not always drawn.

Turning to `CC(=O)Nc1ncc(CN2CCN[C@H](Cc3cc(C)nc(C)c3)C2)s1` [Example 4-1, (R)—N-(5-((3-((2,6-dimethylpyridin-4-yl)methyl)piperazin-1-yl)methyl)thiazol-2-yl)acetamide hydrochloride], the IC50 (usually the concentration that gives 50% inhibition) was determined as 7000 nM. Then `CC(=O)Nc1ncc(CN2CCN[C@@H](Cc3cc(C)nc(C)c3)C2)s1` [Example 4-2, (S)—N-(5-((3-((2,6-dimethylpyridin-4-yl)methyl)piperazin-1-yl)methyl)thiazol-2-yl)acetamide hydrochloride], with 350 nM; and `CC(=O)Nc1ncc(CN2CCN(C)[C@H](Cc3cc(C)nc(C)c3)C2)s1` [Example 4-3, (R)—N-(5-((3-((2,6-dimethylpyridin-4-yl)methyl)-4-methylpiperazin-1-yl)methyl)thiazol-2-yl)acetamide], with 1600 nM; and `CC(=O)Nc1ncc(CN2CCN(C)[C@@H](Cc3cc(C)nc(C)c3)C2)s1` [Example 4-4, (S)—N-(5-((3-((2,6-dimethylpyridin-4-yl)methyl)-4-methylpiperazin-1-yl)methyl)thiazol-2-yl)acetamide], with 200 nM. Consider `CC(=O)Nc1ncc(CN2CCN(C)[C@H](Cc3ccnc(C)c3)C2)s1` [Example 4-9, (R)—N-(5-((4-methyl-3-((2-methylpyridin-4-yl)methyl)piperazin-1-yl)methyl)thiazol-2-yl)acetamide], for which the IC50 is above 20000 nM. Then `CC(=O)Nc1ncc(CN2CCN(C)[C@@H](Cc3ccnc(C)c3)C2)s1` [Example 4-10, (S)—N-(5-((4-methyl-3-((2-methylpyridin-4-yl)methyl)piperazin-1-yl)methyl)thiazol-2-yl)acetamide], with 660 nM; and `CC(=O)Nc1ncc(CN2CCN(C)[C@H](Cc3ccc(C)nc3)C2)s1` [Example 4-15, (R)—N-(5-((4-methyl-3-((6-methylpyridin-3-yl)methyl)piperazin-1-yl)methyl)thiazol-2-yl)acetamide], with above 20000 nM.

As to `CC(=O)Nc1ncc(CN2CCN(C)[C@@H](Cc3ccc(C)nc3)C2)s1` [Example 4-16, (S)—N-(5-((4-methyl-3-((6-methylpyridin-3-yl)methyl)piperazin-1-yl)methyl)thiazol-2-yl)acetamide], the IC50 came to 2000 nM.
